Patent US8492589B2, “Alkynyl phenyl derivative compounds for treating ophthalmic diseases and disorders” (Acucela Inc., priority 2007, dated 2013)

What was measured:
[1] = system: retinoid nuclear receptors (RAR and RXR); assay: Retinoid nuclear receptor activity, RAR and RXR together; format: cell-based; conditions: reference agonists
[2] = target: T1, visual cycle isomerase (Bovine RPE microsome membranes) (Bos taurus, UniProt Q28175); assay: In vitro isomerase inhibition assay, bovine RPE microsome membranes; format: biochemical; conditions: bovine RPE microsomes; 11-cis retinol formation
T1 construct: Bovine Retinal Pigment Epithelium (RPE) microsome membranes were the source of a visual cycle isomerase; from tissue; host or cells: bovine retinal pigment epithelium microsome membranes
T1 sequence (Q28175 2-533 limits assumed): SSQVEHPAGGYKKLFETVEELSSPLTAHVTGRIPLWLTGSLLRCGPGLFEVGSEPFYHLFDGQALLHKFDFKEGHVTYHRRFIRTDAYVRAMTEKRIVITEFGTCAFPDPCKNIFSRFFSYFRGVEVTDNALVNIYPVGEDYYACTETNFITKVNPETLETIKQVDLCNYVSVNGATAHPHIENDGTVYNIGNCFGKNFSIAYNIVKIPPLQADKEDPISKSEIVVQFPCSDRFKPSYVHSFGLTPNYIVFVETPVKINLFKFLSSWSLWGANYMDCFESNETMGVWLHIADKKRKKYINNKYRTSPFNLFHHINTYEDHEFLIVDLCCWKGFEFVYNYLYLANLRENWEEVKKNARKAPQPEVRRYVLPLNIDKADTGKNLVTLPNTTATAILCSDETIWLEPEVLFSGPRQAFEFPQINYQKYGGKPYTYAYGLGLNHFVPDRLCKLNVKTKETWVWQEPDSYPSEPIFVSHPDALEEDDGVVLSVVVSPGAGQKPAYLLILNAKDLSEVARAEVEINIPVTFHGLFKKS
Protocol: The capability of alkynyl phenyl-linked amine derivative compounds to inhibit the activity of a visual cycle isomerase was determined.
Bovine Retinal Pigment Epithelium (RPE) microsome membranes were the source of a visual cycle isomerase.
Crude RPE microsome extracts were thawed in a 37° C. water bath, and then immediately placed on ice. 50 ml crude RPE microsomes were placed into a 50 ml Teflon-glass homogenizer (Fisher Scientific, catalog no. 0841416M) on ice, powered by a hand-held DeWalt drill, and homogenized ten times up and down on ice under maximum speed. This process was repeated until the crude RPE microsome solution was homogenized. The homogenate was then subjected to centrifugation (50.2 Ti rotor (Beckman, Fullerton, Calif.), 13,000 RPM; 15360 Rcf) for 15 minutes at 4° C. The supernatant was collected and subjected to centrifugation at 42,000 RPM (160,000 Rcf; 50.2 Ti rotor) for 1 hour at 4° C. The supernatant was removed, and the pellets were suspended in 12 ml (final volume) cold 10 mM MOPS buffer, pH 7.0. The resuspended RPE membranes in 5 ml aliquots were homogenized in a glass-to-glass homogenizer (Fisher Scientific, catalog no. K885500-0021) to high homogeneity. Protein concentration was quantified using the BCA protein assay according to the manufacturer's protocol (Pierce, Rockford, Ill.). The homogenized RPE preparations were stored at −80° C.
Recombinant human apo cellular retinaldehyde-binding protein (CRALBP) was cloned and expressed according to standard methods in the molecular biology art (see Crabb et al., Protein Science 7:746-57 (1998); Crabb et al., J. Biol. Chem. 263:18688-92 (1988)). Briefly, total RNA was prepared from confluent ARPE19 cells (American Type Culture Collection, Manassas, Va.), cDNA was synthesized using an oligo(dT)12-18 primer, and then DNA encoding CRALBP was amplified by two sequential polymerase chain reactions (see Crabb et al., J. Biol. Chem. 263:18688-92 (1988); Intres, et al., J. Biol. Chem. 269:25411-18 (1994); GenBank Accession No. L34219.1). The PCR product was sub-cloned into pTrcHis2-TOPO TA vector according to the manufacturer's protocol (Invitrogen Inc., Carlsbad, Calif.; catalog no. K4400-01), and then the sequence was confirmed according to standard nucleotide sequencing techniques. Recombinant 6×His-tagged human CRALBP was expressed in One Shot TOP 10 chemically competent E. coli cells (Invitrogen), and the recombinant polypeptide was isolated from E. coli cell lysates by nickel affinity chromatography using nickel (Ni) Sepharose XK16-20 columns for HPLC (Amersham Bioscience, Pittsburgh, Pa.; catalog no. 17-5268-02). The purified 6×His-tagged human CRALBP was dialyzed against 10 mM bis-tris-Propane (BTP) and analyzed by SDS-PAGE. The molecular weight of the recombinant human CRALBP was approximately 39 kDal.
Alkkynyl phenyl-linked amine derivative compounds and control compounds were reconstituted in ethanol to 0.1 M. Ten-fold serial dilutions (10^−2, 10^−3, 10^−4, 10^−5, 10^−6 M) in ethanol of each compound were prepared for analysis in the isomerase assay.
The isomerase assay was performed in 10 mM bis-tris-propane (BTP) buffer, pH 7.5, 0.5% BSA (diluted in BTP buffer), 1 mM sodium pyrophosphate, 20 μM all-trans retinol (in ethanol), and 6 μM apo-CRALBP. The test compounds (2 μl) (final […] dilution of serial dilution stocks) were added to the above reaction mixture to which RPE microsomes were added. The same volume of ethanol was added to the control reaction (absence of test compound). Bovine RPE microsomes (9 μl) (see above) were then added, and the mixtures transferred to 37° C. to initiate the reaction (total volume=150 μl). The reactions were stopped after 30 minutes by adding methanol (300 μl). Heptane was added (300 μl) and mixed into the reaction mixture by pipetting. Retinoid was extracted by agitating the reaction mixtures, followed by centrifugation in a microcentrifuge. […]

Structure (SMILES): CC1=C(/C=C/C(C)=C/C=C/C(C)=C/C(=O)O)C(C)(C)CCC1 [at-RA, all-trans-retinoic acid]
- activation of the RXRα, RARα, RARβ and RARγ receptors [1]: activated

Structure (SMILES): C/C(=C\c1ccc(C(=O)O)cc1)c1ccc2c(c1)C(C)(C)CCC2(C)C [TTNPB, E-4-[2-(5,6,7,8-tetrahydro-5,5,8,8-tetramethyl-2-naphthylenyl)-1-propenyl]benzoic acid]
- activation of the RXRα, RARα, RARβ and RARγ receptors [1]: activated

Structure (SMILES): NCCOc1cccc(C#CCC2CCCC2)c1 [Example 85, 2-(3-(3-Cyclopentylprop-1-ynyl)phenoxy)ethanamine]
- IC50 [2]: ≤ 1 µM

Structure (SMILES): Cc1cccc(C)c1C#Cc1cccc(CCCN)c1 [Example 17, 3-(3-((2,6-dimethylphenyl)ethynyl)phenyl)propan-1-amine]
- IC50 [2]: ≤ 10 µM

Structure (SMILES): CCCCC#Cc1cccc(CCCN)c1 [Example 44, 3-(3-(Hex-1-ynyl)phenyl)propan-1-amine]
- IC50 [2]: ≤ 1 µM

Structure (SMILES): Cc1ccc(C#Cc2cccc(CCCN)c2)cc1 [Example 84, 3-(3-(p-Tolylethynyl)phenyl)propan-1-amine]
- IC50 [2]: ≤ 100 µM

Structure (SMILES): NCCCc1cccc(C#Cc2ccsc2)c1 [Example 66, 3-(3-(Thiophen-3-ylethynyl)phenyl)propan-1-amine]
- IC50 [2]: ≤ 10 µM

Structure (SMILES): NCCCc1cccc(C#CCO)c1 [Example 10, 3-(3-(3-Aminopropyl)phenyl)prop-2-yn-1-ol]
- IC50 [2]: ≤ 100 µM

Structure (SMILES): COCCCC#Cc1cccc(CCCN)c1 [Example 70, 3-(3-(5-Methoxypent-1-ynyl)phenyl)propan-1-amine]
- IC50 [2]: ≤ 1 µM

Structure (SMILES): NCCCc1cccc(C#CCCc2ccccc2)c1 [Example 72, 3-(3-(4-Phenylbut-1-ynyl)phenyl)propan-1-amine]
- IC50 [2]: ≤ 1 µM

Structure (SMILES): NCCCc1cccc(C#CC2(O)CCCCCC2)c1 [Example 58, 1-((3-(3-Aminopropyl)phenyl)ethynyl)cycloheptanol]
- IC50 [2]: ≤ 1 µM

Structure (SMILES): CCCCC[C@@H](O)C#Cc1cccc(CCCN)c1 [Example 15, (R)-1-(3-(3-Aminopropyl)phenyl)oct-1-yn-3-ol]
- IC50 [2]: ≤ 1 µM

Structure (SMILES): CC(O)(C#Cc1cccc(CCCN)c1)c1ccccc1 (stereo not shown) [Example 22, 4-(3-(3-Aminopropyl)Phenyl)-2-Phenylbut-3-Yn-2-ol]
- IC50 [2]: ≤ 1 µM

Structure (SMILES): NCCCc1cccc(C#Cc2cccc3ccccc23)c1 [Example 82, 3-(3-(Naphthalen-1-ylethynyl)phenyl)propan-1-amine]
- IC50 [2]: ≤ 100 µM

Structure (SMILES): N#Cc1cccc(C#Cc2cccc(OCCN)c2)c1 [Example 88, 3-((3-(2-Aminoethoxy)phenyl)ethynyl)benzonitrile]
- IC50 [2]: ≤ 10 µM

Structure (SMILES): NCCOc1cccc(C#Cc2ccccn2)c1 [Example 98, 2-(3-(Pyridin-2-ylethynyl)phenoxy)ethanamine]
- IC50 [2]: ≤ 10 µM

Structure (SMILES): NCCOc1cccc(C#Cc2cccs2)c1 [Example 95, 2-(3-(Thiophen-2-ylethynyl)phenoxy)ethanamine]
- IC50 [2]: ≤ 1 µM

Structure (SMILES): NCCCc1cccc(C#CC2CCCCC2)c1 [Example 41, 3-(3-(Cyclohexylethynyl)phenyl)propan-1-amine]
- IC50 [2]: ≤ 1 µM

Structure (SMILES): NCCOc1cccc(C#CCCO)c1 [Example 76, 4-(3-(2-Aminoethoxy)phenyl)but-3-yn-1-ol]
- IC50 [2]: ≤ 100 µM

Structure (SMILES): NCCCc1cccc(C#Cc2cccnc2)c1 [Example 64, 3-(3-(Pyridin-3-ylethynyl)phenyl)propan-1-amine]
- IC50 [2]: ≤ 10 µM

Structure (SMILES): CC(C)C(O)C#Cc1cccc(CCCN)c1 (stereo not shown) [Example 23, 1-(3-(3-Aminopropyl)phenyl)-4-methylpent-1-yn-3-ol]
- IC50 [2]: ≤ 1 µM

Structure (SMILES): CCCC(O)(C#Cc1cccc(CC(C)(C)CN)c1)CCC [Example 20, 4-((3-(3-Amino-2,2-dimethylpropyl)phenyl)ethynyl)heptan-4-ol]
- IC50 [2]: ≤ 100 µM

Structure (SMILES): CCCCCC#Cc1cccc(CCCN)c1 [Example 102, 3-(3-(Hept-1-ynyl)phenyl)propan-1-amine]
- IC50 [2]: ≤ 1 µM

Structure (SMILES): NCCCc1cccc(C#Cc2ccc3ccccc3c2)c1 [Example 45, 3-(3-(Naphthalen-2-ylethynyl)phenyl)propan-1-amine]
- IC50 [2]: ≤ 1000 µM

Structure (SMILES): CC(C)CC(C)(O)C#Cc1cccc(CCCN)c1 (stereo not shown) [Example 6, 1-(3-(3-Aminopropyl)phenyl)-3,5-dimethylhex-1-yn-3-ol]
- IC50 [2]: ≤ 1 µM
